Measurements taken from patent publication US7087595B2, “Antihistaminic spiro compounds” (Janssen Pharmaceutica, N.V., priority 1998, dated 2006).
Structures can show the parent of a compound that is named as a salt.

The molecules below were run on Compound 48/80 induced Lethality (assay: Protection of Rats from Compound 48/80 induced Lethality). Conditions: Rattus norvegicus, protection from Compound 48/80 induced lethality, read-out: ED50.
Format: in vivo

Question: With `Cl.Cl.NC(=O)c1cnc2n1CCc1ccccc1C21CCNCC1` [Compound 17, 5,6-dihydrospiro[11H-imidazo[2,1-b][3]-benzazepine-11,4′-piperidine]-3-carboxamide dihydrochloride] as the molecule, how does the ED50 read?
Answer: 0.04 mg/kg

Question: How did the ED50 turn out when `Clc1cnc2n1CCc1ccccc1C21CCNCC1.O=C(O)/C=C/C(=O)O` [Compound 20, 3-chloro-6,11-dihydrospiro[5H-imidazo[2,1-b][3]benzazepine-11,4′-piperidine] (E)-2-butenedioate (1:1)] was run?
Answer: 0.31 mg/kg

Question: With `C1=Cn2ccnc2C2(CCNCC2)c2ccsc21` [Compound 56a, spiro[10H-imidazo[1,2-a]thieno[3,2-d]azepine-10,4′-piperidine]] as the molecule, how does the ED50 read?
Answer: 2.5 mg/kg

Question: For `CCOC(=O)C(CN1CCC2(CC1)c1ccccc1CCn1c(C(N)=O)cnc12)c1ccccc1` (stereo not drawn) [Compound 64, ethyl 3-(aminocarbonyl)-6,11-dihydro-α-phenylspiro[5H-imidazo-[2,1-b][3]benzazepine-11,4′-piperidine]-1′-propanoate monohydrochloride], which ED50 is on record?
Answer: 0.31 mg/kg

Question: For `CN1CCC2(CC1)c1ccccc1CCn1c(C(N)=O)cnc12.O` [Compound 80, 6,11-dihydro-1′-methylspiro[5H-imidazo[2,1-b][3]benzazepine-11,4′-piperidine]-3-carboxamide monohydrate], which ED50 is on record?
Answer: 0.63 mg/kg

Question: How did the ED50 turn out when `Cl.Cl.NC(=O)c1nc2n(c1C(N)=O)CCc1ccccc1C21CCNCC1.O` [Compound 53, 6,11-dihydrospiro[5H-imidazo[2,1-b][3]benzazepine-11,4′-piperidine]-2,3-dicarboxamide dihydrochloride monohydrate] was run?
Answer: 0.31 mg/kg

Same assay, conditions: protection from Compound 48/80 induced lethality

Question: How did the “ED50” value turn out when `COCc1cnc2n1CCc1ccccc1C21CCNCC1.O=C(O)/C=C/C(=O)O` [Compound 58, 6,11-dihydro-3-(methoxymethyl)spiro[5H-imidazo[2,1-b][3]benzazepine-11,4′-piperidine]. (E)-2-butenedioate (1:1)] was run?
Answer: 2.5 mg/kg

Question: For `CN1CCC2(CC1)c1ccccc1CCn1ccnc12.O=S(=O)(O)NC1CCCCC1.O=S(=O)(O)NC1CCCCC1` [Compound 1, 6,11-dihydro-1′-methylspiro[5H-imidazo[2,1-b][3]benzazepine-11,4′-piperidine]cyclohexylsulfamate(1:2)], which “ED50” value is on record?
Answer: 2.5 mg/kg

Question: With `NC(=O)c1cnc2n1CCc1ccccc1C21CCN(CCO)CC1` [Compound 62, 6,11-dihydro-1′-(2-hydroxyetehyl)spiro[5H-imidazo[2,1-b][3]-benzazepine-11,4′-piperidine]-3-carboxamide] as the molecule, how does the “ED50” value read?
Answer: 0.63 mg/kg

Question: Which “ED50” value does the source give for “3-(aminocarbonyl)-6,11-dihydrospiro[5H-imidazo[2,1-b][3]-benzazepine-11,4′-piperidine]-1′-carboxylate [Compound 79]” here?
Answer: 0.04 mg/kg

Question: How did the “ED50” value turn out when “5,6-dihydrospiro[11H-imidazo[2,1-b][3]benzazepine-11,4′-piperidine]-3-methanol (E)-2-butenedioic acid salt (2:1) [Compound 18a]” was run?
Answer: 0.08 mg/kg

Question: For `CCCCN1CCC2(CC1)c1ccccc1CCn1ccnc12.CCCCN1CCC2(CC1)c1ccccc1CCn1ccnc12.Cl.Cl.Cl.Cl.O` [Compound 3, 1′-butyl-5,6-dihydrospiro[imidazo[2,1-b][3]-benzazepine-11-[11H],4′-piperidine]dihydrochloride.hemihydrate], which “ED50” value is on record?
Answer: 2.5 mg/kg
